This test deals with bicistronic HCV replicon (replicon RNA, GenBank Accession No. AJ242654). The test can be described thus: HCV Replicon Assay. The format is cell-based. The conditions noted are these: Hepatitis C virus, 72 h, read-out: Replicon IC50.

Bounds are passed on as bounds.

By IC50 is commonly meant the midpoint of a concentration-inhibition curve.

`CC(C)(NS(=O)(=O)c1ccc(-c2c(C#N)c3ccc(C4CC4)cc3n2-c2ccccn2)nc1)C(F)(F)F` [compound 584, 6-[3-cyano-6-cyclopropyl-1-(pyridin-2-yl)-1H-indol-2-yl]-N-(1,1,1-trifluoro-2-methylpropan-2-yl)pyridine-3-sulfonamide]: the IC50 was 500 to 2000 nM.

As for `N#Cc1c(-c2ncc(S(=O)(=O)NC(CF)CF)cn2)n(C2CCC2)c2cc(CC(F)F)ccc12` [compound 591, 2-[3-cyano-1-cyclobutyl-6-(2,2-difluoroethyl)-1H-indol-2-yl]-N-(1,3-difluoropropan-2-yl)pyrimidine-5-sulfonamide], the IC50 is < 500 nM.

With `C[C@H](NS(=O)(=O)c1ccc(-c2c(C#N)c3ccc(CC(F)F)cc3n2C2CCCC2)nc1)C1CC1` [compound 594, 6-[3-cyano-1-cyclopentyl-6-(2,2-difluoroethyl)-1H-indol-2-yl]-N-[(1S)-1-cyclopropylethyl]pyridine-3-sulfonamide], the IC50 is < 500 nM.

For `N#Cc1c(-c2ccc(S(=O)(=O)NC(CF)CF)cn2)n(-c2ncccn2)c2ccc(F)cc12` [compound 608, 6-[3-cyano-5-fluoro-1-(pyrimidin-2-yl)-1H-indol-2-yl]-N-(1,3-difluoropropan-2-yl)pyridine-3-sulfonamide], the concentration for half-maximal inhibition (IC50) was < 500 nM.

Take `N#Cc1c(-c2ccc(S(=O)(=O)NC(CF)CF)cn2)n(CC2CC2)c2cc(CC(F)F)ccc12` [compound 616, 6-[3-cyano-1-(cyclopropylmethyl)-6-(2,2-difluoroethyl)-1H-indol-2-yl]-N-(1,3-difluoropropan-2-yl)pyridine-3-sulfonamide]: the IC50 is < 500 nM.

Consider `C[C@H](NS(=O)(=O)c1ccc(-c2c(C#N)c3ccc(CC(F)F)cc3n2CC2CC2)nc1)C1CC1` [compound 617, 6-[3-cyano-1-(cyclopropylmethyl)-6-(2,2-difluoroethyl)-1H-indol-2-yl]-N-[(1S)-1-cyclopropylethyl]pyridine-3-sulfonamide], for which the IC50 was < 500 nM.

As for `C[C@H](NS(=O)(=O)c1ccc(-c2c(C#N)c3ccc(CC(F)F)cc3n2CC2CC2)nc1)C(F)(F)F` [compound 618, 6-[3-cyano-1-(cyclopropylmethyl)-6-(2,2-difluoroethyl)-1H-indol-2-yl]-N-[(2S)-1,1,1-trifluoropropan-2-yl]pyridine-3-sulfonamide], the IC50 is < 500 nM.

`CC(C)NS(=O)(=O)c1cnc(-c2c(C#N)c3ccc(CC(F)F)cc3n2CC2CC2)nc1` [compound 620, 2-[3-cyano-1-(cyclopropylmethyl)-6-(2,2-difluoroethyl)-1H-indol-2-yl]-N-(propan-2-yl)pyrimidine-5-sulfonamide]: the IC50 was < 500 nM.

In the case of `N#Cc1c(-c2ccc(S(=O)(=O)NC3(C(F)(F)F)CC3)cn2)n(-c2ccccn2)c2cc(OC(F)F)ccc12` [compound 623, 6-[3-cyano-6-(difluoromethoxy)-1-(pyridin-2-yl)-1H-indol-2-yl]-N-[1-(trifluoromethyl)cyclopropyl]pyridine-3-sulfonamide], the IC50 fell in the range of 500 to 2000 nM.

In the case of `Cc1cc2c(cc1F)c(C#N)c(-c1ccc(S(=O)(=O)N[C@@H](C)C(F)(F)F)cn1)n2-c1ncccn1` [compound 634, 6-[3-cyano-5-fluoro-6-methyl-1-(pyrimidin-2-yl)-1H-indol-2-yl]-N-[(2S)-1,1,1-trifluoropropan-2-yl]pyridine-3-sulfonamide], the IC50 is < 500 nM.

Regarding `C[C@H](NS(=O)(=O)c1ccc(-c2c(C#N)c3cc(Cl)c(OC(F)F)cc3n2C2CCC2)nc1)C(F)(F)F` [compound 636, 6-[5-chloro-3-cyano-1-cyclobutyl-6-(difluoromethoxy)-1H-indol-2-yl]-N-[(2S)-1,1,1-trifluoropropan-2-yl]pyridine-3-sulfonamide], the 50% inhibitory concentration (IC50) is < 500 nM.

As to `Cc1cc2c(cc1F)c(C#N)c(-c1ccc(S(=O)(=O)NC3(C(F)(F)F)CC3)cn1)n2C1CCCC1` [compound 644, 6-(3-cyano-1-cyclopentyl-5-fluoro-6-methyl-1H-indol-2-yl)-N-[1-(trifluoromethyl)cyclopropyl]pyridine-3-sulfonamide], the IC50 is < 500 nM.

Turning to `C[C@H](NS(=O)(=O)c1ccc(-c2c(C#N)c3ccc(C4CC4)cc3n2-c2ncccn2)nc1)C(F)(F)F` [compound 650, 6-[3-cyano-6-cyclopropyl-1-(pyrimidin-2-yl)-1H-indol-2-yl]-N-[(2S)-1,1,1-trifluoropropan-2-yl]pyridine-3-sulfonamide], the IC50 is < 500 nM.

As to `Cc1cc2c(cc1F)c(C#N)c(-c1ccc(S(=O)(=O)NC3CC3)cn1)n2C1CCC1` [compound 652, 6-(3-cyano-1-cyclobutyl-5-fluoro-6-methyl-1H-indol-2-yl)-N-cyclopropylpyridine-3-sulfonamide], the IC50 is < 500 nM.

In the case of `Cc1cc2c(C#N)c(-c3ccc(S(=O)(=O)N[C@H](C)C(F)(F)F)cn3)n(C3CCC3)c2cc1OC(F)F` [compound 665, 6-[3-cyano-1-cyclobutyl-6-(difluoromethoxy)-5-methyl-1H-indol-2-yl]-N-[(2R)-1,1,1-trifluoropropan-2-yl]pyridine-3-sulfonamide], the half-maximal inhibitory concentration (IC50) fell in the range of 500 to 2000 nM.

Turning to `Cc1c(F)cc2c(C#N)c(-c3ncc(S(=O)(=O)NC(CF)CF)cn3)n(C3CCC3)c2c1F` [compound 668, 2-(3-cyano-1-cyclobutyl-5,7-difluoro-6-methyl-1H-indol-2-yl)-N-(1,3-difluoropropan-2-yl)pyrimidine-5-sulfonamide], the half-maximal inhibitory concentration (IC50) is < 500 nM.

In the case of `C[C@@H](NS(=O)(=O)c1ccc(-c2c(C#N)c3cc(F)c(OC(F)F)cc3n2-c2ccccn2)nc1)C(F)(F)F` [compound 670, 6-[3-cyano-6-(difluoromethoxy)-5-fluoro-1-(pyridin-2-yl)-1H-indol-2-yl]-N-[(2R)-1,1,1-trifluoropropan-2-yl]pyridine-3-sulfonamide], the IC50 was < 500 nM.

With `Cc1ccc2c(C#N)c(-c3ccc(S(=O)(=O)N[C@H](C)C(F)(F)F)cn3)n(-c3ccccn3)c2c1` [compound 671, 6-[3-cyano-6-methyl-1-(pyridin-2-yl)-1H-indol-2-yl]-N-[(2R)-1,1,1-trifluoropropan-2-yl]pyridine-3-sulfonamide], the IC50 is < 500 nM.

Consider `Cc1cc2c(cc1F)c(C#N)c(-c1ncc(S(=O)(=O)N[C@@H](C)C(F)(F)F)cn1)n2C1CCCCC1` [compound 679, 2-(3-cyano-1-cyclohexyl-5-fluoro-6-methyl-1H-indol-2-yl)-N-[(2S)-1,1,1-trifluoropropan-2-yl]pyrimidine-5-sulfonamide], for which the IC50 is < 500 nM.

Consider `C[C@H](NS(=O)(=O)c1ccc(-c2c(C#N)c3cc(F)c(OC(F)F)cc3n2-c2ncccn2)nc1)C(F)(F)F` [compound 682, 6-[3-cyano-6-(difluoromethoxy)-5-fluoro-1-(pyrimidin-2-yl)-1H-indol-2-yl]-N-[(2S)-1,1,1-trifluoropropan-2-yl]pyridine-3-sulfonamide], for which the IC50 is < 500 nM.

Consider `Cc1cc2c(cc1F)c(C(N)=O)c(-c1ccc(S(=O)(=O)NC(C)(C)C)cn1)n2C1CCCC1` [compound 683, 2-[5-(tert-butylsulfamoyl)pyridin-2-yl]-1-cyclopentyl-5-fluoro-6-methyl-1H-indole-3-carboxamide], for which the IC50 was < 500 nM.

`CSc1cc2c(C#N)c(-c3ccc(S(=O)(=O)N[C@@H](C)C(F)(F)F)cn3)n(C3CCC3)c2cc1OC(F)F` [compound 685, 6-[3-cyano-1-cyclobutyl-6-(difluoromethoxy)-5-(methylsulfanyl)-1H-indol-2-yl]-N-[(2S)-1,1,1-trifluoropropan-2-yl]pyridine-3-sulfonamide]: the IC50 is 500 to 2000 nM.

Take `Cc1cc2c(cc1O)c(C#N)c(-c1ccc(S(=O)(=O)N[C@H](C)C(F)(F)F)cn1)n2C1CCCC1` [compound 693, 6-(3-cyano-1-cyclopentyl-5-hydroxy-6-methyl-1H-indol-2-yl)-N-[(2R)-1,1,1-trifluoropropan-2-yl]pyridine-3-sulfonamide]: the IC50 was < 500 nM.

Consider `Cc1cc2c(cc1F)c(C#N)c(-c1ccc(S(=O)(=O)N[C@H](C)C(F)(F)F)cn1)n2-c1ncccn1` [compound 695, 6-[3-cyano-5-fluoro-6-methyl-1-(pyrimidin-2-yl)-1H-indol-2-yl]-N-[(2R)-1,1,1-trifluoropropan-2-yl]pyridine-3-sulfonamide], for which the IC50 was < 500 nM.

As to `CC1(NS(=O)(=O)c2ccc(-c3c(C#N)c4cc(CC(F)F)ccc4n3C3CCC3)nc2)CC1` [compound 696, 6-[3-cyano-1-cyclobutyl-5-(2,2-difluoroethyl)-1H-indol-2-yl]-N-(1-methylcyclopropyl)pyridine-3-sulfonamide], the IC50 is < 500 nM.

Consider `C[C@H](NS(=O)(=O)c1ccc(-c2c(C#N)c3cc(F)c(CC(F)F)cc3n2C2CCC2)nc1)C(F)(F)F` [compound 697, 6-[3-cyano-1-cyclobutyl-6-(2,2-difluoroethyl)-5-fluoro-1H-indol-2-yl]-N-[(2S)-1,1,1-trifluoropropan-2-yl]pyridine-3-sulfonamide], for which the IC50 was < 500 nM.

As for `CCc1cc2c(cc1F)c(C#N)c(-c1ccc(S(=O)(=O)N[C@@H](C)C(F)(F)F)cn1)n2-c1ncccn1` [compound 704, 6-[3-cyano-6-ethyl-5-fluoro-1-(pyrimidin-2-yl)-1H-indol-2-yl]-N-[(2S)-1,1,1-trifluoropropan-2-yl]pyridine-3-sulfonamide], the half-inhibitory concentration (IC50) is < 500 nM.

With `Cc1cc2c(cc1F)c(C(N)=O)c(-c1ncc(S(=O)(=O)N[C@@H](C)C(F)(F)F)cn1)n2C1CCCCC1` [compound 707, 1-cyclohexyl-5-fluoro-6-methyl-2-(5-{[(2S)-1,1,1-trifluoropropan-2-yl]sulfamoyl}pyrimidin-2-yl)-1H-indole-3-carboxamide], the 50% inhibitory concentration (IC50) is < 500 nM.

`C[C@H](N(C(F)F)S(=O)(=O)c1ccc(-c2c(C#N)c3cc(F)c(OC(F)F)cc3n2C2CCC2)nc1)C(F)(F)F` [compound 712, 6-[3-cyano-1-cyclobutyl-6-(difluoromethoxy)-5-fluoro-1H-indol-2-yl]-N-(difluoromethyl)-N-[(2S)-1,1,1-trifluoropropan-2-yl]pyridine-3-sulfonamide]: the concentration for half-maximal inhibition (IC50) was 2000 to 5000 nM.

As to `CC(C)(C)NS(=O)(=O)c1ccc(-c2c(C#N)c3cc(F)c(OC(F)F)cc3n2C2CCC2)nc1` [compound 720, N-tert-butyl-6-[3-cyano-1-cyclobutyl-6-(difluoromethoxy)-5-fluoro-1H-indol-2-yl]pyridine-3-sulfonamide], the half-inhibitory concentration (IC50) was < 500 nM.
